# Results taken from patent US9820483B2, “Microbial composition” (Rohm and Haas Company, priority 2011, dated 2017).
# Tested on: Escherichia coli (E. coli—ATCC #10536)
# Assay: Automated assessment of efficacy in model surfactant base (2.85% sodium cocoyl glycinate + 1.85% sodium lauroamphoacetate, pH 10), 15 seconds exposure, delta OD450/OD590 in D/E quench
# Format: cell-based
# Protocol: Solutions were prepared such that the concentrations of the surfactant components and test actives were 1.1× the final desired concentration in order to allow for dilution with the bacterial inoculum in the test. The solutions were manually adjusted to pH 10.0 by dropwise addition of sodium hydroxide solution, as measured with a pH meter at ambient temperature.
# Tests were conducted using standard microtiter plate assays using an automated liquid handling system. 270 μl of the surfactant test solution was pipetted into each well of the microtitre plate and 30 μl of the bacterial suspension was then added. After exactly 15 seconds of bacterial exposure, a 30 μl volume of bacterial cells was withdrawn and transferred to 270 μl of D/E quench solution. After 5 minutes in the D/E quench, the optical density (OD) was measured for each plate in turn at two specific wavelengths (450 nm and 590 nm). These provide a dual check of antimicrobial activity, as the OD450 reading is specific for the yellow colour of D/E quench when bacterial growth is observed, whereas OD590 is specific for the initial purple colour of the D/E quench which is retained if no bacterial growth is observed. After the time zero OD measurements, plates were then incubated at 37° C. overnight (16 hours) before repeating the OD measurements. Delta OD values were calculated by subtracting […]. Bacterial growth is observed as an increase in OD450 and a decrease in ΔOD590. To identify antibacterially efficacious systems (those preventing appreciable bacterial growth after incubation), the following threshold changes in OD readings have been adopted: if (1). OD450 increases by less than 0.2 absorbance unit on incubation and (2). OD590 decreases by less than 0.35 unit on incubation. Conversely, where OD450 increases by more than 0.2 AU and OD590 decreases by more than 0.35 unit after incubation, corresponding to a colour shift from purple to yellow, the test system allows bacterial growth and is not deemed efficacious. Four replicate measurements in the same plate have been made for each test system. The number of replicate wells showing either bacterial growth or no growth is also readily assessed by eye by following the colour change.
# Dose responses for individual components and binary mixtures of actives at a fixed concentration ratio were generated by sequential dilution of liquors with further surfactant solution to obtain a series of endpoints.
# In some selected cases, the combinations were also tested at the weight ratio 1:1.
# The method used was the same as in the above Table.
smiles,measurement,setting,value
C=C(C)C1CCC(C)C(O)C1 (stereo not shown) [2-methyl-5-(prop-1-en-2-yl)cyclohexanol],MBC,"Escherichia coli, ATCC10536, 15 s, in 2.85% sodium cocoyl glycinate + 1.85% sodium lauroamphoacetate solution at pH 10, E. coli, read-out: MBC",4000 µg/mL
same,No. of replicates showing growth (out of 4),single active at 0.3% w/v,4
same,"Δ OD 590 nm = OD590 (time = 16 hours) − OD590 (time zero), Mean",single active at 0.3% w/v,0.66
same,"ΔOD 450 nm = OD450 (time = 16 hours) − OD450 (time zero), Mean",single active at 0.3% w/v,−0.44
same,No. of replicates showing growth (out of 4),single active at 0.5% w/v,0
same,"Δ OD 590 nm = OD590 (time = 16 hours) − OD590 (time zero), Mean",single active at 0.5% w/v,0.20
same,"ΔOD 450 nm = OD450 (time = 16 hours) − OD450 (time zero), Mean",single active at 0.5% w/v,0.23
same,No. of replicates showing growth (out of 4),single active at […] w/v,4
same,"Δ OD 590 nm = OD590 (time = 16 hours) − OD590 (time zero), Mean",single active at […] w/v,0.63
same,"ΔOD 450 nm = OD450 (time = 16 hours) − OD450 (time zero), Mean",single active at […] w/v,−0.50
